Paper PMC8672774, “Discovery of cell active macrocyclic peptides with on-target inhibition of KRAS signaling” (Chemical Science, 2021)
Numbered stars: 1 amine (or outer) side, 2 acyl side, 3 side chain; on linkers, the order of the positions; unused ones are H or OH. Bridge positions count the residues as written; N and C are the ends. Square brackets hold non-standard residues; d marks the D form. Peptide text beside a SMILES is read from it. CH2 = C([*:1])[*:2]

How the values were obtained:
[1] = test system: MAPK and PI3K signaling in A375 cells (BRAF^V600E); assay: Western blot of MAPK and PI3K signaling in A375 cells; type: cell-based
[2] = test system: MAPK and PI3K signaling in SK-MEL-28 cells (BRAF^V600E); assay: Western blot of MAPK and PI3K signaling in SK-MEL-28 cells; type: cell-based
GDP-loaded KRAS^G12D = biological target: T1, GDP-loaded KRAS^G12D (Homo sapiens, UniProt P01116, G12D); assay: TR-FRET competitive binding assay using KRAS G12D loaded with GDP; details: competition with 500 nM FAM-labeled tracer; relative binding, EC50 right-shifted compared to KD
T1 construct: (AAs 1 to 169 plus a 4xGly motif appended to the N-; His-SUMO (N, cleaved yes); made in house; host or cells: E. coli Rosetta 2 (DE3)

[3] = test system: pERK in KRAS^G12C, KRAS^G12V and KRAS^G12D cancer lines; assay: Cellular phospho-ERK assay in panel of KRAS mutant cancer lines; type: cell-based
Experimental: For the latter, this included HEK293 cells (Fig. 4C), a cell line that has no dependency on RAS for cell proliferation.[21]
Ratio of pERK vs total ERK in
Penicillin/Streptomycin (Gibco 15140-122).
A375 cells were seeded at a
membranes were measured by LDH release assay.
according to manufacturer’s protocol.

A375 cells = assay: CellTiter-Glo 2.0 cell viability assay, A375; type: cell-based; details: 120 h
Experimental: (§1) Prism software (GraphPad, San Diego, CA).
(§2) according to the manufacturer’s protoco l.
(§3) time of 0.15 second per well.
(§4) AMG510 was prepared internally from
(§5) Cells were cultured and seeded

[4] = test system: extended cell panel incl. HEK293 cells; assay: CellTiter-Glo cell viability assay (extended cell panel); type: cell-based
Source text: Table S2: Cell culture conditions and seeding densities for 5-day CellTiter- Glo® cell viability assay on extended 1 6 cell panel.
Cell Line Vendor Catalog Description Complete g rowth m e d i um Seeding density […]
Capan-1 ATCC HTB-79 pancreas, adenocarcinoma IMDM+20%FBS 7 00
CFPAC-1 ATCC CRL-19 18 pancreas, ductal adenocarcinoma; cystic fibrosis IMDM+10%FBS 6 00 […]
MiaPaCa-2 ATCC CRL-14 20 pancreas, pancreatic Carcinoma DMEM+10%FBS 6 00 NCI-H358 ATCC CRL-58 07 lung, non-small cell lung cancer,bronchioalveolar RPMI1640+10%FBS […]
Panc 10.05 ATCC CRL-25 47 pancreas, adenocarcinoma RPMI1640 + 20 Units/ml human […]
SK-CO-1 ATCC HTB-39 colon, colorectal adenocarcinoma EMEM+10%FBS 3 00 […]
SW4 80 ATCC CCL-22 8 colon, adenocarcinoma Leibovitz's L-15
Prism software (GraphPad, San Diego, CA). […]
according to the manufacturer’s protoco l. […]
as §3, §4
Cells were cultured and seeded […]
the manufacturer’s protocol. […]
integration time of 0.1 second per well. […]
indicated peptides the next day.

[5] = test system: AsPC-1, SK-CO-1, NCI-H358 and NCI-H2122 cells; assay: CellTiter-Glo 2.0 cell viability assay, KRAS mutant lines; type: cell-based; details: AsPC-1, SK-CO-1, NCI-H358, NCI-H2122; 120 h
Experimental: as §1, §2, §3, §4, §5

[6] = test system: pERK and pAKT in AsPC-1 cells; assay: Western blot of KRAS signaling (pERK, pAKT) in AsPC-1 cells; type: cell-based; details: 1 hour and 16 hour time-points
EGF receptor activation = assay: Western blot of EGF receptor activation in AsPC-1 cells; type: cell-based
rat mast cells = assay: Ex vivo rat mast cell degranulation and histamine release assay; details: for rMCD histamine release threshold: lowest concentration at which histamine release was observed, rat peritoneal mast cells, 30 min
[7] = test system: TNFα-stimulated NFκB signaling; assay: Western blot of TNFα-stimulated NFκB signaling in AsPC-1 cells; type: cell-based
[8] = test system: A375 and SK-MEL-28 cells vs AsPC-1 cells; assay: Live-cell fluorescence imaging of FAM-labelled peptides; type: cell-based; details: A375 and SK-MEL-28 compared to AsPC-1
[9] = test system: pERK in NCI-H358 (heterozygous KRAS^G12C) cells; assay: Cellular phospho-ERK assay in NCI-H358 cells with and without EGF; details: 20 nM EGF stimulation

SMILES: Cc1ccc(NC(=O)c2cccc(C(C)(C)C#N)c2)cc1Nc1ccc2ncn(C)c(=O)c2c1 [AZ628, reference compound]
- inhibition of MAPK signaling in A375 [1]: inhibited MAPK signaling
- inhibition of MAPK signaling in SK-MEL-28 [2]: inhibited MAPK signaling

SMILES: CC[C@H](C)[C@@H]1NC(=O)[C@H](Cc2ccc(O)cc2)NC(=O)[C@H](C)NC(=O)[C@@H]2CCCN2C(=O)[C@H](NC(=O)[C@H](CCCNC(=N)N)NC(=O)[C@H](CCCNC(=N)N)NC(C)=O)CSCSC[C@@H](C(=O)N[C@@H](CCCNC(=N)N)C(=O)N[C@@H](CCCNC(=N)N)C(N)=O)NC(=O)[C@H](C(C)C)NC(=O)[C@@H]2CCCN2C(=O)[C@H](CC(=O)O)NC(=O)[C@H](Cc2ccc(O)cc2)NC(=O)[C@H](CO)NC1=O [Compound 6] (Ac-RR[dC]PAYISYDPVCRR-NH2; linker 3-13 via CH2)
- EC50 (GDP-loaded KRAS^G12D): > 48.1 µM

SMILES: N#CC(=C(/N)Sc1ccccc1N)/C(C#N)=C(/N)Sc1ccccc1N [Compound U0126, reference compound]
- inhibition of MAPK signaling in A375 [1]: inhibited MAPK signaling
- inhibition of MAPK signaling in SK-MEL-28 [2]: inhibited MAPK signaling

SMILES: CC[C@H](C)[C@@H]1NC(=O)[C@H](Cc2ccc(O)cc2)NC(=O)[C@H](CC(C)C)NC(=O)[C@@H]2CCCN2C(=O)[C@H](NC(=O)[C@@H](CCCNC(=N)N)NC(=O)[C@@H](CCCNC(=N)N)NC(=O)[C@@H](CCCNC(=N)N)NC(=O)[C@@H](CCCNC(=N)N)NC(=O)[C@H](CCCCN=[N+]=[N-])NC(C)=O)CSCSC[C@@H](C(=O)N[C@H](CCCNC(=N)N)C(=O)N[C@H](CCCNC(=N)N)C(=O)N[C@H](CCCNC(=N)N)C(=O)N[C@H](CCCNC(=N)N)C(N)=O)NC(=O)[C@H](C(C)C)NC(=O)[C@@H]2CCCN2C(=O)[C@H](CC(=O)O)NC(=O)[C@H](Cc2ccc(O)cc2)NC(=O)[C@](C)(CO)NC1=O [MP-3995]
- pERK inhibition across KRAS mutant cancer lines [3]: low micromolar range
- cell growth inhibition in A375 (A375 cells): lack of cell growth inhibition
- sensitivity of HEK293 cell proliferation ([4]; HEK293, no dependency on RAS): insensitive
- number of KRAS mutant cell lines with inhibited proliferation ([4]; extended panel, 120 h): 8 out of 13
- inhibition of cell proliferation in KRAS mutant lines [5]: inhibitory effects on cell proliferation

SMILES: CC[C@H](C)[C@@H]1NC(=O)[C@H](Cc2ccc(O)cc2)NC(=O)[C@H](CC(C)C)NC(=O)[C@@H]2CCCN2C(=O)[C@H](NC(=O)[C@@H](CCCNC(=N)N)NC(=O)[C@@H](CCCNC(=N)N)NC(=O)[C@@H](CCCNC(=N)N)NC(=O)[C@@H](CCCNC(=N)N)NC(=O)[C@H](CCCCN=[N+]=[N-])NC(C)=O)CSCSC[C@@H](C(=O)N[C@H](CCCNC(=N)N)C(=O)N[C@H](CCCNC(=N)N)C(=O)N[C@H](CCCNC(=N)N)C(=O)N[C@H](CCCNC(=N)N)C(N)=O)NC(=O)[C@H](C(C)C)NC(=O)[C@@H]2CCCN2C(=O)[C@H](CC(=O)O)NC(=O)[C@H](Cc2ccc(O)cc2)NC(=O)[C@H](CO)NC1=O [MP-4090]
- inhibition of KRAS signaling (pERK, pAKT) by Western blot [6]: display cell-based inhibition
- effect on upstream EGF receptor activation (EGF receptor activation): no effect
- activation of mast cell degranulation (histamine release), in words (rat mast cells; ex vivo, rat mast cells): highly potent activators of MCD
- rMCD histamine release threshold (rat mast cells): ≥0.14 µM
- inhibition of MAPK signaling in A375 [1]: inactive
- effect on TNFα-stimulated NFκB signaling [7]: no effect
- inhibition of MAPK signaling in SK-MEL-28 [2]: inactive

SMILES: CC[C@@H](C)[C@H]1NC(=O)[C@@H](Cc2ccc(O)cc2)NC(=O)[C@@H](CC(C)C)NC(=O)[C@H]2CCCN2C(=O)[C@H](NC(=O)[C@@H](CCCNC(=N)N)NC(=O)[C@@H](CCCNC(=N)N)NC(=O)[C@@H](CCCNC(=N)N)NC(=O)[C@@H](CCCNC(=N)N)NC(C)=O)CSCSC[C@H](C(=O)N[C@H](CCCNC(=N)N)C(=O)N[C@H](CCCNC(=N)N)C(=O)N[C@H](CCCNC(=N)N)C(=O)N[C@H](CCCNC(=N)N)C(N)=O)NC(=O)[C@@H](C(C)C)NC(=O)[C@H]2CCCN2C(=O)[C@@H](CC(=O)O)NC(=O)[C@@H](Cc2ccc(O)cc2)NC(=O)[C@@H](CO)NC1=O [MP-4956, Ac-rrrr-cyclo(c(methylene)plyisydpvc)-rrrr-NH2]
- inhibition of KRAS signaling (pERK, pAKT) by Western blot [6]: showed no activity
- inhibition of cell proliferation in KRAS mutant lines [5]: minimal inhibitory effects

SMILES: CC[C@H](C)[C@@H]1NC(=O)[C@H](Cc2ccc(O)cc2)NC(=O)[C@H](CC(C)C)NC(=O)[C@@H]2CCCN2C(=O)[C@H](NC(=O)[C@H](CCCNC(=N)N)NC(=O)[C@H](CCCNC(=N)N)NC(=O)[C@H](CCCNC(=N)N)NC(=O)[C@H](CCCNC(=N)N)NC(=O)[C@H](CCCCN=[N+]=[N-])NC(C)=O)CSCSC[C@@H](C(=O)N[C@@H](CCCNC(=N)N)C(=O)N[C@@H](CCCNC(=N)N)C(=O)N[C@@H](CCCNC(=N)N)C(=O)N[C@@H](CCCNC(=N)N)C(N)=O)NC(=O)[C@H](C(C)C)NC(=O)[C@@H]2CCCN2C(=O)[C@H](CC(=O)O)NC(=O)[C@H](Cc2ccc(O)cc2)NC(=O)[C@H](CO)NC1=O [MP-6483]
- inhibition of KRAS signaling (pERK, pAKT) by Western blot [6]: display cell-based inhibition
- rMCD histamine release threshold (rat mast cells): ≥0.14 µM

SMILES: CC[C@H](C)[C@@H]1NC(=O)[C@H](Cc2ccc(O)cc2)NC(=O)[C@H](CC(C)C)NC(=O)[C@@H]2CCCN2C(=O)[C@H](NC(=O)[C@@H](CCCNC(=N)N)NC(=O)[C@@H](CCCNC(=N)N)NC(=O)[C@@H](CCCNC(=N)N)NC(=O)[C@@H](CCCNC(=N)N)NC(=O)c2ccc3c(c2)C(=O)OC32c3ccc(O)cc3Oc3cc(O)ccc32)CSCSC[C@@H](C(=O)N[C@H](CCCNC(=N)N)C(=O)N[C@H](CCCNC(=N)N)C(=O)N[C@H](CCCNC(=N)N)C(=O)N[C@H](CCCNC(=N)N)C(N)=O)NC(=O)[C@H](C(C)C)NC(=O)[C@@H]2CCCN2C(=O)[C@H](CC(=O)O)NC(=O)[C@H](Cc2ccc(O)cc2)NC(=O)[C@H](CO)NC1=O [MP-8996]
- cell entry of FAM-labeled peptide in BRAF mutant cells [8]: roughly equivalent amounts compared to AsPC-1 cells

SMILES: CC[C@H](C)[C@@H]1NC(=O)[C@H](Cc2ccc(O)cc2)NC(=O)[C@H](CC(C)C)NC(=O)[C@@H]2CCCN2C(=O)[C@H](NC(=O)[C@@H](CCCNC(=N)N)NC(=O)[C@@H](CCCNC(=N)N)NC(=O)[C@@H](CCCNC(=N)N)NC(=O)[C@@H](CCCNC(=N)N)NC(=O)[C@H](CCCCN=[N+]=[N-])NC(C)=O)CSCSC[C@@H](C(=O)N[C@H](CCCNC(=N)N)C(=O)N[C@H](CCCNC(=N)N)C(=O)N[C@H](CCCNC(=N)N)C(=O)N[C@H](CCCNC(=N)N)C(N)=O)NC(=O)[C@H](C(C)C)NC(=O)[C@@H]2CCCN2C(=O)[C@@H](CC(=O)O)NC(=O)[C@H](Cc2ccc(O)cc2)NC(=O)[C@H](CO)NC1=O [MP-9658, Ac-K(N3)-rrrr-cyclo(c(methylene)PLYISYdPVC)-rrrr-NH2]
- inhibition of MAPK signaling in A375 [1]: inactive
- inhibition of MAPK signaling in SK-MEL-28 [2]: inactive

SMILES: C=CC(=O)N1CCN(c2nc(OC[C@@H]3CCCN3C)nc3c2CCN(c2cccc4cccc(C)c24)C3)C[C@@H]1CC#N [MRTX-1257]
- potency shift in pERK in the presence of EGF, NCI-H358 [9]: 2 fold
